{
  "source": "patent US11065245B2",
  "about": "“Priming of cancer cells with low dose naltrexone” (CANCER VACCINE INSTITUTE, priority 2014, dated 2021)",
  "key": {"[1]": {"test_system": "A549 cells (a lung cancer cell line)", "assay": "Cell growth (MTT) with recovery (wash) phase after naltrexone", "type": "cell-based", "settings": "1 nM and 10 nM naltrexone 48 h then 24 h drug-free vs 72 h continuous", "description": "(§1) (A) A549 cells (a lung cancer cell line) and (B) HCT116 cells (a colorectal carcinoma cell line), were cultured for 48 h in 1 nM and 10 nM (low dose) naltrexone (LDN) and in 1 μM and 10 μM (standard dose) naltrexone (NTX). Cells were either then washed and allowed to grow in drug-free medium for 24 h (wash) or continuously cultured in naltrexone for a total of 72 h (72); cell was viability assessed by absorbance readings. Effect of the wash step on HCT116 cells were also measured by (C) 3-(4,5-dimethylthiazol-2-yl)-2,5-diphenyltetrazolium bromide (MTT) colorimetric assay, (D) cell counting and (E) percentage of viable cells.\n(§2) To study the effect of each agent on cell growth, cells growing exponentially were added to 96-well plates at a density of 3×10^4/well. Drugs were then added to the wells, ensuring an equal volume of 200 μl across the plate. Cell number was measured at 72 hr using a standard methylthiazoletetrazolium (MTT)-based assay without modifications. Briefly, MTT was added to each well to give a working concentration of 0.4 mg/ml, and plates returned to the incubator for a further 1 hr. After this time, the medium was aspirated off, 200 μl of DMSO was then added to each well and plates agitated gently for 5 min before measuring optical density at 540 nm in each well. […]"}, "[2]": {"test_system": "HCT116 cells (a colorectal carcinoma cell line)", "assay": "Cell growth (MTT, cell counting, viability) with recovery (wash) phase after naltrexone", "type": "cell-based, human", "settings": "1 nM and 10 nM naltrexone 48 h then 24 h drug-free vs 72 h continuous", "description": "as §1, §2"}, "[3]": {"test_system": "T98G cells (glioma cell line)", "assay": "Cell growth (absorbance) with recovery (wash) phase after naltrexone", "type": "cell-based", "settings": "naltrexone 48 h then 24 h drug-free vs 72 h continuous", "description": "(§3) To study the effect of each agent on cell growth, cells growing exponentially were added to 96-well plates at a density of 3×10^4/well. Drugs were then added to the wells, ensuring an equal volume of 200 μl across the plate. Cell number was measured at 72 hr using a standard methylthiazoletetrazolium (MTT)-based assay without modifications. Briefly, MTT was added to each well to give a working concentration of 0.4 mg/ml, and plates returned to the incubator for a further 1 hr. After this time, the medium was aspirated off, 200 μl of DMSO was then added to each well and plates agitated gently for 5 min before measuring optical density at 540 nm in each well. The effect of recovery, where a wash step was included, was studied by removing naltrexone-containing medium and replacing this with fresh drug-free medium after 48 hr, before assessing cell number at the 72 hr time-point. Cell counting was performed by under light microscopy using staining with trypan blue to aid the discrimination of dead/dying cells. See description of FIGS. 1 and 2."}, "[4]": {"test_system": "U87MG cells (glioma cell line)", "assay": "Cell growth (absorbance) with recovery (wash) phase after naltrexone", "type": "cell-based", "settings": "naltrexone 48 h then 24 h drug-free vs 72 h continuous", "description": "as §3"}, "[5]": {"test_system": "Bcl-2-associated death promoter (BAD) protein", "assay": "Western blot/densitometry of cell cycle proteins in HCT116 cells", "type": "cell-based, human", "settings": "10 nM naltrexone (LDN), 48 h", "description": "(§4) Methodologically, HCT116 cells were treated with NTX and LDN for 48 h before determination of cellular proteins as labelled in the figure. The intensities of each of the bands indicate the level at which these proteins were expressed, which were enumerated by density analysis.\n(§5) Cells were treated with 10 μM naltrexone (NTX) or 10 nM naltrexone (LDN) for 48 hr before they were harvested, and total cellular protein was solubilised in lysis buffer and resolved by Tris-glycine electrophoresis using a 4-12% bis-tris gradient-gel. Following transfer of proteins to 0.45-lm nitrocellulose membranes, blocking was performed in 5% (w/v) nonfat milk in TTBS [0.5% (v/v) Tween-20 in TBS (50 mM Tris, 150 mM NaCl, pH 8.0)]. Primary antibody probing for the protein specified in the figure were performed overnight at 4° C. before secondary probing using horseradish peroxidase-conjugated anti-species IgG1. Bands were visualised by the ECL-plus detection system. Densitometry analysis was performed using proprietary analysis software. RNA was extracted from these cells for gene expression analysis. RNA was purified by Trizol, followed by precipitation with isopropanol. […] Equal amounts (750 ng) of cRNA were hybridised to the Illumina human HT12-v3 arrays for 18 hr and subsequently processed according to manufacturer's instructions before scanning on an Illumina BeadArray Reader. […]"}, "[6]": {"test_system": "phosphorylated AKT", "assay": "Western blot/densitometry of cell cycle proteins in HCT116 cells", "type": "cell-based, human", "settings": "10 nM naltrexone (LDN), 48 h", "description": "as §4, §5"}, "[7]": {"test_system": "murine neuroblastoma", "settings": "murine xenograft model; cited from earlier work"}, "[8]": {"test_system": "human colon cancer cell growth", "settings": "murine xenograft model; cited from earlier work"}, "[9]": {"test_system": "human ovarian cancer cells", "settings": "short-term naltrexone exposure; cited from earlier work"}},
  "data": [
    {"smiles": "O=C1CC[C@@]2(O)[C@H]3Cc4ccc(O)c5c4[C@@]2(CCN3CC2CC2)[C@H]1O5", "note": "[LDN, morphinan-6-one, 17-(cyclopropylmethyl)-4,5-epoxy-3,14-di hydroxy-(5α)]", "values": [
      {"measurement": "cell numbers, recovery (wash) phase vs continuous administration", "setting": "[1]", "result": "greater reduction in cell numbers"},
      {"measurement": "cell numbers, recovery (wash) phase vs continuous administration", "setting": "[2]", "result": "greater reduction in cell numbers"},
      {"measurement": "cell numbers, recovery (wash) phase vs continuous administration", "setting": "[3]", "result": "greater reduction in cell numbers"},
      {"measurement": "cell numbers, recovery (wash) phase vs continuous administration", "setting": "[4]", "result": "greater reduction in cell numbers"},
      {"measurement": "BAD protein level relative to untreated cells", "setting": "[5]", "result": "upregulated"},
      {"measurement": "phosphorylated AKT level relative to untreated cells", "setting": "[6]", "result": "downregulated"},
      {"measurement": "growth of murine neuroblastoma", "setting": "[7]", "result": "inhibition"},
      {"measurement": "growth of human colon cancer cells", "setting": "[8]", "result": "inhibition"},
      {"measurement": "DNA synthesis", "setting": "[9]", "result": "decrease in DNA synthesis"}
    ]}
  ]
}
